What was measured:
guinea pigs = experiment: Skin sensitization study; type: in vivo, guinea pig; conditions: calcitriol at 5.7 μg/g, topical patch induction and challenge
Method: Induction phase. […] The induction exposure was repeated at the same skin site once a week for 2 weeks. The vehicle and positive control groups composed of 5 male and 5 female guinea pigs, each of which were exposed in the same manner as the treatment group to propylene glycol/anhydrous ethanol or hexylcinnamic aldehyde (a known mild to moderate skin-sensitizer), respectively. Skin reactions were scored and recorded at approximately 24 hours after patch removal during the induction phase. After the last induction exposure, the animals remained untreated for two weeks before the challenge exposure.
Challenge phase. The challenge exposure was conducted two weeks after the final topical induction. The test article was topically applied to the Vehicle Control and Test Group at the concentration determined to be non-irritating in the irritation screen. The Vehicle Control Group was also challenged with the Vehicle. The Positive Control Groups received the positive control article. The challenge application sites were scored at approximately 24 and 48 hours after patch removal.

[1] = test system: MIAC51 (chloroleukemia cells); experiment: Rats transplanted with chloroleukemia MIAC51, CTX with topical calcitriol; type: in vivo, rat; conditions: cyclophosphamide, preliminary results
Method: For experiments in which rats were transplanted with chloroleukemia, on Day 5 after birth, rats were randomly divided into three groups of 45 each. All rats received 1×10^5 chloroleukemic cell line MIAC51 (i.p.) in 0.1 mL of serum free (SF) RPMI. MIAC51 were cultured in RPMI 1640 supplemented with L-glutamine and 10% fetal bovine serum at 37° C. in a 5% CO2, 100% humidity incubator. Cells were grown to 50% confluency (1.5×106 mL) collected in 50 mL conical tubes, centrifuged at 600 g×10 min. at room temperature and resuspended in SF-RPMI at a concentration of 1×10^6/mL. Group 1 rats received no further treatment. Group 2 rats received topical vehicle and CTX on day 13. […] Topical applications were performed as described above.
On day 23 after birth, a sample of blood was taken from all rats and differentials performed. Rats with leukemia were sacrificed, rats without leukemia were kept and a second differential performed on day 31, at any point if leukemia was detected, animals were sacrificed by CO2 asphyxiation.

[2] = 4-week dermal toxicity study in Gottingen Minipigs; conditions: both, Gottingen, minipig, in vivo
Method: (§1) Observations for morbidity, mortality, injury, and the availability of food and water were conducted twice daily for all animals. Clinical observations were conducted weekly.

Gottingen Minipig = experiment: 4-week dermal toxicity study in Gottingen Minipigs; conditions: dermal, twice daily, 29 days, 2.1 mL over 450 cm^2
Method: as §1

HEKa cells [3] = experiment: 2-D gel electrophoresis proteomic analysis of calcitriol-treated HEKa; type: cell-based, human; conditions: 0.1 μg/mL
Method: The cell pellets were then analyzed using proteomic methods, such as 2-D gel and Western blot analysis. […] In all, analysis of about 458 protein spots in the comparative study was performed, comparing the control sample against the 3-, 6-, and 24-hour treatment samples. Six spots showing statistically significant differential changes were identified. These spots were excised, and their protein contents subjected to sequence identification by trypsin digestion and mass spectrometry characterization.

HEKa cells [4] = experiment: Real-time PCR Neuroscience and Ion Channels array, calcitriol-treated HEKa; type: cell-based, human; conditions: 0.1 μg/mL; for KCNB2 mRNA regulation pattern: full cell: upregulated until 24 hours
Method: Changes in mRNA levels were evaluated using real-time PCR quantification to assess mRNA levels in preselected subsets containing 80 pathway specific targets (see Appendix). The PCR array analysis utilized two groups of genes—those related to Heat Shock Proteins (SABiosciences), and those related to Neuroscience Ion Channels and Transporters (SABioscience). Cell culture: Primary human epidermal keratinocytes (HEKa) were maintained in Epilife Medium (Cascade Biologics, Inc., Portland Oreg.) along with Human Keratinocyte Growth Supplement (Cascade Biologics, Inc., Portland Oreg.). […] D3 treatment of HEKa cells: […] Vehicle control group of cells were treated with 5 mL media containing 1 μL of ethanol. Cells were harvested 3, 6, 16, 24, 48, or 72 hours after the start of the treatment. RNA isolation: Cells were lysed for RNA isolation at different treatment times using the RNeasy Mini kit (Qiagen, Inc., Valencia Calif.) following the manufacturer's instructions. RNA was quantified by measuring optical density at 260 nm. First Strand Synthesis: […] Real-time PCR: Products from the first strand synthesis were diluted with water, mixed with the SYBR green master mix (SABiosciences., Frederick Md.) and loaded onto PCR arrays. Real time PCR was run on the PCR Arrays (Heat Shock Protein Arrays, and Neuroscience and Ion Channel Arrays) (SABiosciences, Frederick Md.) on a Biorad CFX96. Data analyses were performed using the PCR array data analysis software available on the SABiosciences website.

MCF-7 = experiment: Cell growth / viability assay; type: cell-based
Sprague Dawley rats = experiment: PCA model, hair regrowth in alopecic rats; type: in vivo, rat; conditions: 0.2 μg topical days 22-35, rats alopecic from cyclophosphamide or etoposide; controls day 42
Method: Topical application of 1,25(OH)2D3. 1,25(OH)2D3 was dissolved in absolute ethanol and applied topically with an applicator. Control animals were similarly treated with vehicle only. […] For CIA experiments, 1,25(OH)2D3 was given daily beginning on day 5 after birth and ending on day 10. […] For CIA and PCA, the experimental group was treated with 0.2 μg of 1,25(OH)2D3 in 150 μL of absolute ethanol applied topically over the head and neck. In both instances, the control group received ethanol vehicle only. Cyclophosphamide (35 mg/kg) was given intraperitoneally for one day only. […] Both chemotherapies were started at 11 days of age. Alopecia was recorded on the tenth day after the first dose of chemotherapy. […] Rats were randomized into two groups of ten rats each. One group received vehicle control, while the other received 0.2 μg 1,25(OH)2D3. […] Animals were observed until complete hair regrowth was obtained.

[5] = Preliminary animal toxicology study; type: in vivo; conditions: dose of about 100 μg
NIH-3T3 = experiment: Cell growth / viability assay; type: cell-based
SkBr-3 = experiment: Cell growth / viability assay; type: cell-based

## C=C1/C(=C\C=C2/CCC[C@]3(C)[C@@H]([C@H](C)CCCC(C)(C)O)CC[C@@H]23)C[C@@H](O)C[C@@H]1O [Calcitriol, (1a.3B.5Z.7E)-9,10-secocholesta-5,7,10(19)-triene-1,3,25-triol]
Guinea pigs
  skin sensitization: not determined to be a sensitizer
[1]
  protection of the cancer cells from chemotherapy: have not shown protection of the cancer cells
[2]
  NOAEL at 29 days: 3.33 µg/kg
Gottingen Minipig
  no-observed-adverse-effect-level (NOAEL): 10.31 µg/mL
HEKa cells [3]; full cell: down at 6 and 24 hours
  S100 A9 (Calprotectin) Response: down at 6
HEKa cells [3]; full cell: down at 24 hours
  Keratin 17 Response: down at
HEKa cells [3]; full cell: up at 3, 6, and 24 hours
  Glutathione S-transferase (GST) Response: up at 3, 6,
HEKa cells [4]; full cell: downregulated at 48 hours
  SLC1A3 mRNA regulation pattern: downregulated
HEKa cells [4]; full cell: upregulated at 16 hrs
  SLC1A1 mRNA regulation pattern: upregulated
HEKa cells [4]; full cell: upregulated at 48 hours
  KCNN4 mRNA regulation pattern: upregulated
HEKa cells [4]
  KCNB2 mRNA regulation pattern: upregulated at about 24 hours
HEKa cells [4]; listed as Vitamin D3
  KCNB2 mRNA regulation pattern: upregulated
MCF-7
  effect of calcitriol on cytotoxic effect of Doxorubicin: did not appear to appreciably alter
MCF-7; 0.1 μg/mL calcitriol for two passages
  response to doxorubicin, cisplatin, erlotinib after calcitriol exposure: did not alter
MCF-7; high concentrations
  concentrations giving growth inhibition: > 0.5 µg/mL
MCF-7; low concentrations
  concentrations giving growth stimulation: 0.05 to 0.25 µg/mL
Sprague Dawley rats
  day of total body hair regrowth: 50 days
[5]
  dermal irritation: no dermal irritation
  skin penetration: excellent epidermal penetration without substantial dermal penetration
NIH-3T3
  effect of calcitriol on cell growth: no significant growth promoting or growth inhibiting effects
  effect of calcitriol on cytotoxic effect of Doxorubicin: did not appear to appreciably alter
SkBr-3
  effect of calcitriol on cell growth: no significant growth promoting or growth inhibiting effects
  effect of calcitriol on cytotoxic effect of Doxorubicin: did not appear to appreciably alter

Source: patent publication US20220023317A1, “PREVENTING OR MITIGATING CHEMOTHERAPY INDUCED ALOPECIA USING VITAMIN D” (Berg LLC, priority 2013, published 2022)
